Assay results reported in patent publication US20030176475A1, “Therapeutically useful new salts of cck inhibitors, process for the preparation thereof and pharmaceutical preparations containing them” (priority 2000, published 2003).

Legend:
[1] = Hygroscopicity and chemical stability of the salts; format: physicochemical
From the text: The mono- and di-sodium salts, as well as the mono- and di-potassium salts and their hydrates are highly hygroscopic and chemically not stable compounds namely the compound of the formula (II) decomposes at the amide bond giving rise to decomposition products of formulae (IV) (FIG. 6) and (V) (FIG. 7).

[2] = target: T1, cholecystokinin A (CCK-A) (Rattus norvegicus, UniProt P30551); settings: comparison in words; cited from earlier work
T1 construct: from tissue; host or cells: living rat (in vivo, oral dosing; gastric emptying)
T1 sequence (P30551 1-444): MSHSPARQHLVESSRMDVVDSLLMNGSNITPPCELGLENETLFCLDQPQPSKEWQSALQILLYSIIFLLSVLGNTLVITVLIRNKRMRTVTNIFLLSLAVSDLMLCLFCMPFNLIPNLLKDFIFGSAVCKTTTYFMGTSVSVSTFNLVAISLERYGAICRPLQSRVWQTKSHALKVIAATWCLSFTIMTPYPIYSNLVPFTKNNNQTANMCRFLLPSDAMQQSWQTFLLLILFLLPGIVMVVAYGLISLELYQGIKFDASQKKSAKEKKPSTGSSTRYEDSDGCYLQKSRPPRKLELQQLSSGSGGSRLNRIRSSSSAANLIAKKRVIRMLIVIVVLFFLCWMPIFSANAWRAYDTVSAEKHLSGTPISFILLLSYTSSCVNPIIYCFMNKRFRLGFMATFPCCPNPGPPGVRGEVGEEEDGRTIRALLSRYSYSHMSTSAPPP

Q: Which melting point does the source give for `CCNCC.COc1cc(-c2nc(NC(=O)c3cc4cc(C)cc(C)c4n3CC(=O)O)sc2CCC2CCCCC2)c(OC)cc1Cl` here?
A: 209.4 to 210.7 °C

Q: Which hygroscopicity [1] does the source give for `COc1cc(-c2nc(NC(=O)c3cc4cc(C)cc(C)c4n3CC(=O)O)sc2CCC2CCCCC2)c(OC)cc1Cl.NCCO` [ethanolamine salt, 2-[[[4-(4-chloro-2,5-dimethoxyphenyl)-5-(2-cyclohexylethyl)-2-thiazolyl]amino]carbonyl]-5,7-dimethyl-1H-indol-1-acetic Acid Ethanolamine Salt] here?
A: non-hygroscopic

Q: What about the chemical stability ([1]; decomposition at the amide bond to products of formulae (IV) and (V)) of the same compound?
A: chemically stable

Q: What about the melting point of the same compound?
A: 208 to 210 °C

Q: For `Nc1cc(Cl)nc(C(=O)[O-])c1Cl.[K+]` [potassium salt], which “ED50 of prior salts compared with the 34 μg/kg p.o. of the compound of the invention” value [2] is on record?
A: in the same order

Q: For `COc1cc(-c2nc(NC(=O)c3cc4cc(C)cc(C)c4n3CC(=O)O)sc2CCC2CCCCC2)c(OC)cc1Cl.NCCO.O` (hydrate or solvate), which melting point is on record?
A: 166 to 167 °C
